The values that follow come from US20260042764A1, “COMPOSITIONS AND METHODS FOR INHIBITION OF KRAS” (TheRas, Inc., priority 2022, published 2026).

Assay [1] deals with T1, Avi-KRAS G12V (1-169) GppNHp/RAF1 RBD-3xFLAG (52-151) (Homo sapiens, UniProt P01116, G12V).
T1 construct: Avi-KRAS G12V (1-169)
Briefly: Raf1-KRAS G12V-GppNHP disruption HTRF assay (Biological Example 1). The class given is binding. Particulars: KRAS G12V, GppNHp-loaded; class symbols. In short, it runs like this:
(§1)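 Compound disruption of KRAS-GppNHp/RAF1 RBD binding read by HTRF after two sequential 1 h room-temperature incubations (protein mix, then detection reagents), shaken at 700 rpm. Buffer Tris pH 7.5 with MgCl2, BSA, Tween and 10% DMSO; results given as percent activity relative to DMSO (100%).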
For orientation: Time-resolved FRET reads energy transfer from a long-lived donor to a nearby acceptor.

A further assay concerns GP2d cells (KRAS G12D). The assay can be described thus: Cell-based pERK HTRF assay in GP2d cell (Biological Example 2). As to conditions: GP2d, GP2d (KRAS G12D) cells, pERK HTRF; class symbols. In short, it runs like this: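 Cells grown in DMEM with 10% FBS were exposed to compound for 60 min at 0.25% DMSO, using a 9-point half-log series starting at 1 μM or 100 nM. Lysates were then mixed with d2 and Eu cryptate antibodies for 4–24 h at room temperature, and pERK was read by HTRF.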

Assay [2] addresses T2, Avi-KRAS WT (1-169) GppNHp/RAF1 RBD-3xFLAG (52-151) (Homo sapiens, UniProt P01116).
T2 construct: Avi-KRAS WT (1-169)
The assay can be described thus: Raf1-KRAS WT-GppNHP disruption HTRF assay (Biological Example 1). The class given is binding. Particulars: KRAS WT, GppNHp-loaded; class symbols. The gist of the method:
as §1

The target of assay [3] is T3, Avi-KRAS G12R (1-169) GppNHp/RAF1 RBD-3xFLAG (52-151) (Homo sapiens, UniProt P01116, G12R).
T3 construct: Avi-KRAS G12R (1-169)
T3 sequence (P01116 1-169 isoform P01116-2 G12R): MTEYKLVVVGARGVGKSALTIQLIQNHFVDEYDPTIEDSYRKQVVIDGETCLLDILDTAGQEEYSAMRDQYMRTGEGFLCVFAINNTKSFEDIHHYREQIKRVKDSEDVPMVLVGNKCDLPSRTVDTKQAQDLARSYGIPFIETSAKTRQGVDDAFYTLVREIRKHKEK
The assay can be described thus: Raf1-KRAS G12R-GppNHP disruption HTRF assay (Biological Example 1). The class given is binding. As to conditions: KRAS G12R, GppNHp-loaded; class symbols. The gist of the method: as §1

Assay [4] addresses T4, Avi-KRAS G12D (1-169) GppNHp/RAF1 RBD-3xFLAG (52-151) (Homo sapiens, UniProt P01116, G12D).
T4 construct: Avi-KRAS G12D (1-169)
The assay can be described thus: Raf1-KRAS G12D-GppNHP disruption HTRF assay (Biological Example 1). Particulars: KRAS G12D, GppNHp-loaded; class symbols. The class given is binding. In short, it runs like this: as §1

For the next assay, the system named is SW620 cells (KRAS G12V). The assay can be described thus: Cell-based pERK HTRF assay in SW620 cell (Biological Example 4). As to conditions: Homo sapiens, SW-620, SW620 (KRAS G12V) cells, pERK HTRF; class symbols. The gist of the method: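 SW620 seeded in RPMI/10% FBS, next day dosed 4 h (top 1 μM, half-log, 9 pts, 0.25% DMSO). Lysed, pERK by d2/Eu cryptate HTRF, 4–24 h RT, 615 nm read.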

T4 sequence (P01116 1-169 isoform P01116-2 G12D): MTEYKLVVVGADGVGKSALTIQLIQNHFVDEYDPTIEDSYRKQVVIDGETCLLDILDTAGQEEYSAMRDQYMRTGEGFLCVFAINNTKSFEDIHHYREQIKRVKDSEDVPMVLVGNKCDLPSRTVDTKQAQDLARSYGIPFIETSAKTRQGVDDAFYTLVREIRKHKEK
T1 sequence (P01116 1-169 isoform P01116-2 G12V): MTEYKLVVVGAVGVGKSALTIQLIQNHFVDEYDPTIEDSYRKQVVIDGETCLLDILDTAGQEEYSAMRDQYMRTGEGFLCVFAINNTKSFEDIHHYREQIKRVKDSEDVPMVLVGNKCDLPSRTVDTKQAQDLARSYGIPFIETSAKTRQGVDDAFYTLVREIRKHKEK
T2 sequence (P01116 1-169 isoform P01116-2): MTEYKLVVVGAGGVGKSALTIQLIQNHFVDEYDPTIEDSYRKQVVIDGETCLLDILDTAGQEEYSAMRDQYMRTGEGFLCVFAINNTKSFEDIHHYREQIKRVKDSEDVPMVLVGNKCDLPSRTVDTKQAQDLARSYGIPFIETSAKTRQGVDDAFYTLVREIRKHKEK

For `CCN(c1nc(OC[C@@]23CCCN2C[C@H](F)C3)nc2c(F)c(-c3ccc(F)c4sc(N)c(C#N)c34)c(C(F)(F)F)cc12)[C@H]1C[C@@H]2CCC(=O)N2C1` (atropisomer, axis not shown) [Compound 628], the IC50 (in assay [1]; in the assay on GP2d cells (KRAS G12D); in assay [2]; in assay [3]; in assay [4]; in the assay on SW620 cells (KRAS G12V)) was under 100 nM each time.

Regarding `CCN(c1nc(OC[C@@]23CCCN2C[C@H](F)C3)nc2c(F)c(-c3ccc(F)c4sc(N)c(C#N)c34)c(C(F)(F)F)cc12)[C@@H]1C[C@@H](C)N(C(=O)C2COC2)C1` (atropisomer, axis not shown) [Compound 629], the concentration for half-maximal inhibition (IC50) – broadly, the point on the concentration scale where inhibition reaches its midpoint – in assay [1] was 100 to 1000 nM; in the assay on GP2d cells (KRAS G12D) it was under 100 nM; in assay [2], 100 to 1000 nM; in assay [3] it was 100 to 1000 nM; in assay [4], 100 to 1000 nM; in the assay on SW620 cells (KRAS G12V), under 100 nM.

As for `CCN(c1nc(OC[C@@]23CCCN2C[C@H](F)C3)nc2c(F)c(-c3ccc(F)c4sc(N)c(C#N)c34)c(C(F)(F)F)cc12)[C@@H]1C[C@H](C)N(C(=O)C2COC2)C1` (atropisomer, axis not shown) [Compound 630], the IC50 was 100 to 1000 nM in assay [1]; under 100 nM in the assay on GP2d cells (KRAS G12D); 100 to 1000 nM in assay [2]; 100 to 1000 nM in assay [3]; 100 to 1000 nM in assay [4]; under 100 nM in the assay with SW620 cells (KRAS G12V).

As to `CCN(c1nc(OC[C@@]23CCCN2C[C@H](F)C3)nc2c(F)c(-c3ccc(F)c4sc(N)c(C#N)c34)c(C(F)(F)F)cc12)[C@H]1C[C@@H](COC)N(C(C)=O)C1` (atropisomer, axis not shown) [Compound 632], the IC50 in assay [1] is 100 to 1000 nM; in the assay with GP2d cells (KRAS G12D), under 100 nM; in assay [2], 100 to 1000 nM; in assay [3] it was 100 to 1000 nM; in assay [4], 100 to 1000 nM; in the assay on SW620 cells (KRAS G12V), under 100 nM.

With `CCN1C[C@@H](N(CC)c2nc(OC[C@@]34CCCN3C[C@H](F)C4)nc3c(F)c(-c4ccc(F)c5sc(N)c(C#N)c45)c(C(F)(F)F)cc23)CC1=O` (atropisomer, axis not shown) [Compound 634], the concentration for half-maximal inhibition (IC50) (in assay [1]; in the assay with GP2d cells (KRAS G12D); in assay [2]; in assay [3]; in assay [4]; with SW620 cells (KRAS G12V)) was under 100 nM each time.

For the compound `CCN(c1nc(OC[C@@]23CCCN2C[C@H](F)C3)nc2c(F)c(-c3ccc(F)c4sc(N)c(C#N)c34)c(C(F)(F)F)cc12)[C@H]1CC(=O)N(CCF)C1` (atropisomer, axis not shown) [Compound 635], the IC50 is 100 to 1000 nM in assay [1]; under 100 nM in the assay on GP2d cells (KRAS G12D); under 100 nM in assay [2]; under 100 nM in assay [3]; under 100 nM in assay [4]; under 100 nM with SW620 cells (KRAS G12V).

`CCN(c1nc(OC[C@@]23CCCN2C[C@H](F)C3)nc2c(F)c(-c3ccc(F)c4sc(N)c(C#N)c34)c(C(F)(F)F)cc12)[C@H]1CCN(C(=O)N2CC3(COC3)C2)C1` (atropisomer, axis not shown) [Compound 637]: the 50% inhibitory concentration (IC50) (in assay [1]; with GP2d cells (KRAS G12D); in assay [2]; in assay [3]; in assay [4]; in the assay on SW620 cells (KRAS G12V)) was under 100 nM throughout.

Turning to `CCN(c1nc(OC[C@@]23CCCN2C[C@H](F)C3)nc2c(F)c(-c3ccc(F)c4sc(N)c(C#N)c34)c(C(F)(F)F)cc12)[C@H]1CCN(C(=O)OCC2COC2)C1` (atropisomer, axis not shown) [Compound 639], the IC50 (in assay [1]; with GP2d cells (KRAS G12D); in assay [2]; in assay [3]; in assay [4]; in the assay on SW620 cells (KRAS G12V)) was under 100 nM in each case.

On to `CCN(c1nc(OC[C@@]23CCCN2C[C@H](F)C3)nc2c(F)c(-c3ccc(F)c4sc(N)c(C#N)c34)c(C(F)(F)F)cc12)[C@H]1CCN(C(=O)OCC2CN(C(C)=O)C2)C1` (atropisomer, axis not shown) [Compound 640], for which the IC50 (in assay [1]; with GP2d cells (KRAS G12D); in assay [2]; in assay [3]; in assay [4]; in the assay with SW620 cells (KRAS G12V)) was under 100 nM throughout.

On to `CC(=O)N1CC[C@H]2[C@@H]1CN2c1nc(OC[C@@]23CCCN2C[C@H](F)C3)nc2c(F)c(-c3ccc(F)c4sc(N)c(C#N)c34)c(C(F)(F)F)cc12` (atropisomer, axis not shown) [Compound 641], for which the concentration for half-maximal inhibition (IC50) is 1000 to 10000 nM in assay [1]; under 100 nM in the assay on GP2d cells (KRAS G12D); 100 to 1000 nM in assay [2]; 1000 to 10000 nM in assay [3]; 1000 to 10000 nM in assay [4]; under 100 nM in the assay with SW620 cells (KRAS G12V).

As to `CCC(=O)N1CC[C@H]2[C@@H]1CN2c1nc(OC[C@@]23CCCN2C[C@H](F)C3)nc2c(F)c(-c3ccc(F)c4sc(N)c(C#N)c34)c(C(F)(F)F)cc12` (atropisomer, axis not shown) [Compound 642], the half-inhibitory concentration (IC50) in assay [1] was 1000 to 10000 nM; in the assay with GP2d cells (KRAS G12D), under 100 nM; in assay [2], 1000 to 10000 nM; in assay [3], 1000 to 10000 nM; in assay [4], 1000 to 10000 nM; with SW620 cells (KRAS G12V) it was 100 to 1000 nM.

With `N#Cc1c(N)sc2c(F)ccc(-c3c(C(F)(F)F)cc4c(N5C[C@H]6[C@@H]5CCN6C(=O)C5CC5)nc(OC[C@@]56CCCN5C[C@H](F)C6)nc4c3F)c12` (atropisomer, axis not shown) [Compound 643], the concentration for half-maximal inhibition (IC50) is 1000 to 10000 nM in assay [1]; 100 to 1000 nM in the assay on GP2d cells (KRAS G12D); 1000 to 10000 nM in assay [2]; 1000 to 10000 nM in assay [3]; 1000 to 10000 nM in assay [4]; 100 to 1000 nM in the assay with SW620 cells (KRAS G12V).

In the case of `CCN(c1nc(OC[C@@]23CCCN2C[C@H](F)C3)nc2c(F)c(-c3ccc(F)c4sc(N)c(C#N)c34)c(C(F)(F)F)cc12)[C@H]1C[C@H](COC)N(C(C)=O)C1` (atropisomer, axis not shown) [Compound 647], the half-inhibitory concentration (IC50) in assay [1] is under 100 nM; in the assay on GP2d cells (KRAS G12D) it was under 100 nM; in assay [2] it was 100 to 1000 nM; in assay [3], 100 to 1000 nM; in assay [4], under 100 nM; in the assay with SW620 cells (KRAS G12V) it was under 100 nM.

As for `CCC(=O)N1C[C@@H](N(CC)c2nc(OC[C@@]34CCCN3C[C@H](F)C4)nc3c(F)c(-c4ccc(F)c5sc(N)c(C#N)c45)c(C(F)(F)F)cc23)C[C@@H]1COC` (atropisomer, axis not shown) [Compound 648], the 50% inhibitory concentration (IC50) was under 100 nM in assay [1]; under 100 nM in the assay on GP2d cells (KRAS G12D); 100 to 1000 nM in assay [2]; under 100 nM in assay [3]; under 100 nM in assay [4]; under 100 nM in the assay on SW620 cells (KRAS G12V).

As to `CCC(=O)N1C[C@@H](N(CC)c2nc(OC[C@@]34CCCN3C[C@H](F)C4)nc3c(F)c(-c4ccc(F)c5sc(N)c(C#N)c45)c(C(F)(F)F)cc23)C[C@H]1COC` (atropisomer, axis not shown) [Compound 649], the half-maximal inhibitory concentration (IC50) is 100 to 1000 nM in assay [1]; under 100 nM in the assay with GP2d cells (KRAS G12D); 100 to 1000 nM in assay [2]; 100 to 1000 nM in assay [3]; 100 to 1000 nM in assay [4]; under 100 nM in the assay with SW620 cells (KRAS G12V).

On to `CCN(c1nc(OC[C@@]23CCCN2C[C@H](F)C3)nc2c(F)c(-c3ccc(F)c4sc(N)c(C#N)c34)c(C(F)(F)F)cc12)[C@H]1C[C@@H](COC)N(C(=O)C2CC2)C1` (atropisomer, axis not shown) [Compound 650], for which the half-maximal inhibitory concentration (IC50) in assay [1] is 100 to 1000 nM; with GP2d cells (KRAS G12D), under 100 nM; in assay [2], 100 to 1000 nM; in assay [3], 100 to 1000 nM; in assay [4], 100 to 1000 nM; in the assay with SW620 cells (KRAS G12V) it was under 100 nM.

On to `CCN(c1nc(OC[C@@]23CCCN2C[C@H](F)C3)nc2c(F)c(-c3ccc(F)c4sc(N)c(C#N)c34)c(C(F)(F)F)cc12)[C@H]1CCN(C(=O)N2C[C@H]3C[C@@H]2CO3)C1` (atropisomer, axis not shown) [Compound 653], for which the half-maximal inhibitory concentration (IC50) (in assay [1]; in the assay on GP2d cells (KRAS G12D); in assay [2]; in assay [3]; in assay [4]; in the assay with SW620 cells (KRAS G12V)) was under 100 nM each time.
